Test results: the supplement of paper PMC6331611
Values after ≈ are worked out from the molar mass of the structure shown. Where a name gives a salt, the structure may show the parent alone.

Experiments:
[1] = test system: Salmonella enterica serovar Typhimurium SL1344
[2] = test system: Salmonella enterica serovar Typhimurium SL1344; experiment: intracellular MIC (10-fold luminescence reduction); higher = less potent; details: RAW264.7 macrophages
[3] = test system: RAW264.7; experiment: cytotoxicity (LDH release relative to maximum lysis); higher = more toxic; details: 50 µM; 2 h

| MIC ([1]; LPM pH 5.8) [µM] | MIC ([1]; MHB) [µM] | MIC ([1]; MOPS glucose minimal medium) [µM] | intracellular MIC [2] [µM] | Compound | cytotoxicity [3] [%] |
| --- | --- | --- | --- | --- | --- |
| > 50 | > 50 | 50 | > 50 | O.O.O=C([O-])CN(CCN(CC(=O)[O-])CC(=O)O)CC(=O)O.[Na+].[Na+] [EDETATE DISODIUM] | 19.1 |
| ≤ 0.78 | ≤ 0.78 | ≤ 0.78 | 3.13 | C=C1c2c(Cl)ccc(O)c2C(=O)C2=C(O)[C@]3(O)C(=O)C(C(N)=O)=C(O)[C@@H](N(C)C)[C@@H]3[C@@H](O)[C@H]12.O=C(O)c1cc(S(=O)(=O)O)ccc1O [MECLOCYCLINE SULFOSALICYLATE] | 16.3 |
| > 50 | > 50 | > 50 | > 50 | COc1c(N2C[C@@H]3CCCN[C@@H]3C2)c(F)cc2c(=O)c(C(=O)O)cn(C3CC3)c12 [MOXIFLOXACIN HYDROCHLORIDE] | 24.3 |
| ≤ 0.78 | 12.5 (≈ 4.48 µg/mL) | 6.25 (≈ 2.24 µg/mL) | 6.25 | CS(=O)(=O)c1ccc([C@@H](O)[C@@H](CF)NC(=O)C(Cl)Cl)cc1 [FLORFENICOL] | 21.3 |
| 1.56 | ≤ 0.78 | ≤ 0.78 | ≤ 0.78 | CCn1cc(C(=O)O)c(=O)c2cc(F)c(N3CCNC(C)C3)c(F)c21 (centres undefined) [LOMEFLOXACIN HYDROCHLORIDE] | 15.9 |
| > 50 | > 50 | > 50 | > 50 | CC(=O)[C@H]1CC[C@H]2[C@@H]3C[C@H](C)C4=CC(=O)CC[C@]4(C)[C@H]3[C@@H](O)C[C@]12C [MEDRYSONE] | 7.6 |
| > 50 | > 50 | > 50 | > 50 | N[C@@H](Cc1cc(I)c(Oc2ccc(O)c(I)c2)c(I)c1)C(=O)O [LIOTHYRONINE] | 6.23 |
| 3.13 | 12.5 | 6.25 | 3.13 | CCN1CCN(C(=O)N[C@@H](C(=O)N[C@@H]2C(=O)N3[C@@H]2SC(C)(C)[C@@H]3C(=O)O)c2ccccc2)C(=O)C1=O [PIPERACILLIN SODIUM] | 7.66 |
| > 50 | – | ≤ 0.78 | ≤ 0.78 | O=C(O)c1cn(C2CC2)c2cc(N3CCNCC3)c(F)cc2c1=O [CIPROFLOXACIN] | 21.5 |
| > 50 | > 50 | > 50 | 3.13 | CNCCCC12CCC(c3ccccc31)c1ccccc12 [MAPROTILINE HYDROCHLORIDE] | 34 |
| ≤ 0.78 | 6.25 | 3.13 | 3.13 | C=C1c2cccc(O)c2C(=O)C2=C(O)[C@]3(O)C(=O)C(C(N)=O)=C(O)[C@@H](N(C)C)[C@@H]3[C@@H](O)[C@H]12 [METHACYCLINE HYDROCHLORIDE] | 13.8 |
| ≤ 0.78 | ≤ 0.78 | ≤ 0.78 | 1.56 | CN1CCN(c2cc3c(cc2F)c(=O)c(C(=O)O)cn3-c2ccc(F)cc2)CC1 [DIFLOXACIN HYDROCHLORIDE] | 6.88 |
| 50 (≈ 10.3 µg/mL) | > 50 | > 50 | > 50 | CCOC(=O)Nc1nc2ccccc2[nH]1 [LOBENDAZOLE] | 21.1 |
| > 50 | > 50 | > 50 | 1.56 | CC[C@H]1OC(=O)[C@H](C)[C@@H](O[C@H]2C[C@@](C)(OC)[C@@H](O)[C@H](C)O2)[C@H](C)[C@@H](O[C@@H]2O[C@H](C)C[C@H](N(C)C)[C@H]2O)[C@](C)(O)C[C@@H](C)C(=O)[C@H](C)[C@@H](O)[C@]1(C)O [ERYTHROMYCIN] | 6.32 |
| ≤ 0.78 | > 50 | ≤ 0.78 | 1.56 | CCCCCCNC(=O)n1cc(F)c(=O)[nH]c1=O [CARMOFUR] | 13.7 |
| 50 (≈ 14.9 µg/mL) | > 50 | > 50 | 12.5 | CO[C@H]1O[C@@H]2O[C@@]3(C)CC[C@H]4[C@H](C)CC[C@@H]([C@H]1C)[C@@]24OO3 [ARTEMETHER] | 7.51 |
| ≤ 0.78 | ≤ 0.78 | ≤ 0.78 | ≤ 0.78 | Cc1oc(=O)oc1CN1CCN(c2cc3c(cc2F)c(=O)c(C(=O)O)c2n3C(C)S2)CC1 (centres undefined) [PRULIFLOXACIN] | 13.2 |
| 50 (≈ 31 µg/mL) | 50 (≈ 31 µg/mL) | 25 (≈ 15.5 µg/mL) | > 50 | CO/N=C(\C(=O)N[C@@H]1C(=O)N2C(C(=O)OCOC(=O)C(C)(C)C)=C(/C=C\c3scnc3C)CS[C@H]12)c1csc(N)n1 [CEFDITORIN PIVOXIL] | 21 |

| MIC ([1]; LPM pH 5.8) [µM] | MIC ([1]; MHB) [µM] | MIC ([1]; MOPS glucose minimal medium) [µM] | intracellular MIC [2] [µM] | Compound | cytotoxicity [3] [%] |
| --- | --- | --- | --- | --- | --- |
| > 50 | > 50 | > 50 | > 50 | COc1ccc2cc1Oc1ccc(cc1)C[C@H]1c3c(cc4c(c3Oc3cc5c(cc3OC)CCN(C)[C@@H]5C2)OCO4)CCN1C [CEPHARANTHINE] | 13.1 |
| 50 (≈ 13 µg/mL) | 1.56 (≈ 0.406 µg/mL) | 6.25 (≈ 1.63 µg/mL) | 1.56 | COc1ccc(Cc2cnc(N)nc2N)cc1OC [DIAVERIDINE] | 6.9 |
| ≤ 0.78 | ≤ 0.78 | ≤ 0.78 | 1.56 | C[C@H]1[C@H](NC(=O)/C(=N\OC(C)(C)C(=O)O)c2csc(N)n2)C(=O)N1S(=O)(=O)O [AZTREONAM] | 6.82 |
| > 50 | > 50 | > 50 | > 50 | CCOc1ccc(Cc2nccc3cc(OCC)c(OCC)cc23)cc1OCC [ETHAVERINE HYDROCHLORIDE] | 12.8 |
| ≤ 0.78 | > 50 | > 50 | ≤ 0.78 | CCn1nc(C(=O)O)c(=O)c2cc3c(cc21)OCO3 [CINOXACIN] | 8.11 |
| > 50 | > 50 | > 50 | ≤ 0.78 | O=C(CCCN1CCC(O)(c2ccc(Br)cc2)CC1)c1ccc(F)cc1 [BROMPERIDOL] | 15 |
| ≤ 0.78 | ≤ 0.78 | ≤ 0.78 | ≤ 0.78 | COc1c(N2CCNC(C)C2)c(F)cc2c(=O)c(C(=O)O)cn(C3CC3)c12 (centres undefined) [GATIFLOXACIN] | 21.7 |
| ≤ 0.78 | ≤ 0.78 | ≤ 0.78 | 1.56 | CC1COc2c(N3CCN(C)CC3)c(F)cc3c(=O)c(C(=O)O)cn1c23 (centres undefined) [OFLOXACIN] | 6.6 |
| ≤ 0.78 | ≤ 0.78 | ≤ 0.78 | ≤ 0.78 | O=C(O)c1cn(-c2ccc(F)cc2)c2cc(N3CCNCC3)c(F)cc2c1=O [SARAFLOXACIN HYDROCHLORIDE] | 21.5 |
| > 50 | > 50 | > 50 | 1.56 | COc1ccc(C(=O)c2ccccc2)c(O)c1 [OXYBENZONE] | 6.44 |
| 1.17 | ≤ 0.78 | ≤ 0.78 | 1.56 | CO/N=C(\C(=O)N[C@@H]1C(=O)N2C(C(=O)O)=C(CSc3nnnn3C)CS[C@H]12)c1csc(N)n1 [CEFMENOXIME HYDROCHLORIDE] | 8.15 |
| 6.25 (≈ 2 µg/mL) | ≤ 0.78 | ≤ 0.78 | 3.13 | CCn1cc(C(=O)O)c(=O)c2cc(F)c(N3CCNCC3)nc21 [ENOXACIN] | 20.8 |
| ≤ 0.78 | ≤ 0.78 | ≤ 0.78 | > 50 | O=c1[nH]c(=O)n([C@H]2C[C@H](O)[C@@H](CO)O2)cc1F [FLOXURIDINE] | 18.7 |
| ≤ 0.78 | ≤ 0.78 | ≤ 0.78 | > 50 | CCOC(=O)C1=C(COCCN)NC(C)=C(C(=O)OC)C1c1ccccc1Cl (centres undefined) [AMLODIPINE BESYLATE] | 22.5 |
| > 50 | > 50 | > 50 | > 50 | CN[C@H]1CC[C@@H](c2ccc(Cl)c(Cl)c2)c2ccccc21 [SERTRALINE HYDROCHLORIDE] | 22.7 |
| ≤ 0.78 | > 50 | > 50 | 1.56 | O=C(O)CN(CCN(CC(=O)O)CC(=O)O)CCN(CC(=O)O)CC(=O)O [PENTETIC ACID] | 7.12 |
| ≤ 0.78 | ≤ 0.78 | ≤ 0.78 | ≤ 0.78 | C[C@H]1COc2c(N3CCN(C)CC3)c(F)cc3c(=O)c(C(=O)O)cn1c23 [LEVOFLOXACIN] | 21 |

| Compound | MIC ([1]; LPM pH 5.8) [µM] | MIC ([1]; MHB) [µM] | MIC ([1]; MOPS glucose minimal medium) [µM] | intracellular MIC [2] [µM] | cytotoxicity [3] [%] |
| --- | --- | --- | --- | --- | --- |
| CNC(=O)Oc1ccc2c(c1)[C@]1(C)CCN(C)[C@@H]1N2C [PHYSOSTIGMINE SALICYLATE] | 12.5 (≈ 3.44 µg/mL) | > 50 | > 50 | ≤ 0.78 | 7.34 |
| CC(=O)OC1CN2CCC1CC2 (centres undefined) [ACECLIDINE] | > 50 | > 50 | > 50 | > 50 | 20.3 |
| CC(=O)[O][Hg][c]1ccccc1 [PHENYLMERCURIC ACETATE] | ≤ 0.78 | ≤ 0.78 | ≤ 0.78 | ≤ 0.78 | 22.2 |
| CCCCCCCCCCCCCCCC[n+]1ccccc1 [CETYLPYRIDINIUM CHLORIDE] | 12.5 | 50 | 12.5 | ≤ 0.78 | 63 |
| CN1C[C@H](CNC(=O)OCc2ccccc2)C[C@@H]2c3cccc4c3c(cn4C)C[C@H]21 [METERGOLINE] | > 50 | > 50 | > 50 | ≤ 0.78 | 16.2 |
| C[CH2][Hg][S]c1ccccc1C(=O)[O-].[Na+] [THIMEROSAL] | ≤ 0.78 | ≤ 0.78 | ≤ 0.78 | ≤ 0.78 | 76.7 |
